Results published in ChEMBL document CHEMBL5291721, “A preclinical secondary pharmacology resource illuminates target-adverse drug reaction associations of marketed drugs” (Nat Commun, 2023).

Columns and labels:
[1] = molecular target: T1, Alpha-2A adrenergic receptor (Homo sapiens, UniProt P08913); type: functional, cell-based
T1 sequence (P08913 whole entry): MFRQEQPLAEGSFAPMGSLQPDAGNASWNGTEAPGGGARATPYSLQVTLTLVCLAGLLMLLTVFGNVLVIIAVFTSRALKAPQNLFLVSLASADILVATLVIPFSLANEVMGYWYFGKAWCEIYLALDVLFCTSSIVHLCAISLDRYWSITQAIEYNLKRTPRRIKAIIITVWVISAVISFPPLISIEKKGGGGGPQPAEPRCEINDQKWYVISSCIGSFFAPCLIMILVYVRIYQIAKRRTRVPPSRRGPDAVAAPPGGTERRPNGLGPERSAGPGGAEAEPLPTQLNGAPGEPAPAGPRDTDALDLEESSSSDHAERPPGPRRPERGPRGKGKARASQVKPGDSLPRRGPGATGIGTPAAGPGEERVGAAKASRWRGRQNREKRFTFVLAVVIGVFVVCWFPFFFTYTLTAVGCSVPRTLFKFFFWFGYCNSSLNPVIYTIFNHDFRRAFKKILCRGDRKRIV

[2] = molecular target: T1, Alpha-2A adrenergic receptor; type: functional, cell-based; remark: listed apart in the source
[3] = molecular target: T2, Type-1 angiotensin II receptor (Homo sapiens, UniProt P30556)
T2 sequence (P30556 whole entry): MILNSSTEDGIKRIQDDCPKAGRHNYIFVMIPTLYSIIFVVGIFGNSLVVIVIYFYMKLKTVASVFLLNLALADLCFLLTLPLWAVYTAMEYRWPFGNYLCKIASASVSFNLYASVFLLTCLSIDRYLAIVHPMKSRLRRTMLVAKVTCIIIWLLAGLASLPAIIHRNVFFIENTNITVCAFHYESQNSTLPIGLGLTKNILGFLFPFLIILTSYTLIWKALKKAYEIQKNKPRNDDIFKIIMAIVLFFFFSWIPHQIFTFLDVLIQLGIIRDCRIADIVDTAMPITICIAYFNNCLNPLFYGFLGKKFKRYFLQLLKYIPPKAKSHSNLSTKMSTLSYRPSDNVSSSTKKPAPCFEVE

[4] = molecular target: T3, Muscarinic acetylcholine receptor M2 (Homo sapiens, UniProt P08172); type: functional, cell-based
T3 sequence (P08172 whole entry): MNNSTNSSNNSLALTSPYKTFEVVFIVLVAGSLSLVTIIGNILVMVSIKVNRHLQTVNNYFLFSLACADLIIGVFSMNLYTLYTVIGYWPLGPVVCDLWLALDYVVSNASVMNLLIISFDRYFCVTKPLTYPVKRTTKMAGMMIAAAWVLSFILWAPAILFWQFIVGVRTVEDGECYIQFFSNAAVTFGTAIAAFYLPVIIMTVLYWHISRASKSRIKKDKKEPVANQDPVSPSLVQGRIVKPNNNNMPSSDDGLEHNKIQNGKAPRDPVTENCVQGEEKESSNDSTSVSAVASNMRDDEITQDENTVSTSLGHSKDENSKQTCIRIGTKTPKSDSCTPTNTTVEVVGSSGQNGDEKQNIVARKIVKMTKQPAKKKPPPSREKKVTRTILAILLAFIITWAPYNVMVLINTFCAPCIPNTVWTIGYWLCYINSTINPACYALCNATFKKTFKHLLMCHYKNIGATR

[5] = molecular target: Growth hormone secretagogue receptor type 1 (Homo sapiens, UniProt Q92847)
[6] = molecular target: T4, 5-hydroxytryptamine receptor 1A (Homo sapiens, UniProt P08908); type: functional, cell-based
T4 sequence (P08908 whole entry): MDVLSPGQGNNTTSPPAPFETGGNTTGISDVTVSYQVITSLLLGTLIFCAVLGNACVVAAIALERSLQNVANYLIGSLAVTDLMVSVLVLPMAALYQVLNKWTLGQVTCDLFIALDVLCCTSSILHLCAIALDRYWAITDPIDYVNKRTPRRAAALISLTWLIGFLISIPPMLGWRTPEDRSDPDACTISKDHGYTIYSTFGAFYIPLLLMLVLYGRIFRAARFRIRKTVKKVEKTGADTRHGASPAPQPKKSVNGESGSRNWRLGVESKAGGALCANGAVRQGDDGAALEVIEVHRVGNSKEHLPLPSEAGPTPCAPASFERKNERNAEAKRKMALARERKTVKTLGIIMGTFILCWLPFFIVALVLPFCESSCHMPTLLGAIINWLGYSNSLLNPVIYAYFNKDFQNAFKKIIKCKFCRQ

[7] = molecular target: Motilin receptor (Homo sapiens, UniProt O43193)
[8] = molecular target: Delta-type opioid receptor (Homo sapiens, UniProt P41143)
[9] = molecular target: 3',5'-cyclic-AMP phosphodiesterase 4D (Homo sapiens, UniProt Q08499); type: functional
[10] = molecular target: T5, Amine oxidase [flavin-containing] A (Homo sapiens, UniProt P21397); type: functional
T5 sequence (P21397 whole entry): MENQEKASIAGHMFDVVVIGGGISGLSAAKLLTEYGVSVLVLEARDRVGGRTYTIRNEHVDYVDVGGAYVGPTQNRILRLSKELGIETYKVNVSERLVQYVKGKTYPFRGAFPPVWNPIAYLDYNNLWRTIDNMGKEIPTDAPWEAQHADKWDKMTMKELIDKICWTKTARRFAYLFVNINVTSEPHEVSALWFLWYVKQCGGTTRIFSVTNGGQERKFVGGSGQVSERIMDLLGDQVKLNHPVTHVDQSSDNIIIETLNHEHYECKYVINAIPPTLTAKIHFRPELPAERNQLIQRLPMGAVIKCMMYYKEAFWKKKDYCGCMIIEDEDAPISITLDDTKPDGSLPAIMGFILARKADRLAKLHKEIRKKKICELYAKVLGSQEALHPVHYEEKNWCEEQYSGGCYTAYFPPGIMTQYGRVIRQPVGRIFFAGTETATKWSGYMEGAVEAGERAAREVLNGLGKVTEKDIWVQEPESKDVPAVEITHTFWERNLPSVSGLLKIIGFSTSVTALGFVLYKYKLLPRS

[11] = molecular target: cGMP-inhibited 3',5'-cyclic phosphodiesterase 3A (Homo sapiens, UniProt Q14432); type: functional
Note: assay procedure not described here.

Sequence of Growth hormone secretagogue receptor type 1 (Q92847 whole entry): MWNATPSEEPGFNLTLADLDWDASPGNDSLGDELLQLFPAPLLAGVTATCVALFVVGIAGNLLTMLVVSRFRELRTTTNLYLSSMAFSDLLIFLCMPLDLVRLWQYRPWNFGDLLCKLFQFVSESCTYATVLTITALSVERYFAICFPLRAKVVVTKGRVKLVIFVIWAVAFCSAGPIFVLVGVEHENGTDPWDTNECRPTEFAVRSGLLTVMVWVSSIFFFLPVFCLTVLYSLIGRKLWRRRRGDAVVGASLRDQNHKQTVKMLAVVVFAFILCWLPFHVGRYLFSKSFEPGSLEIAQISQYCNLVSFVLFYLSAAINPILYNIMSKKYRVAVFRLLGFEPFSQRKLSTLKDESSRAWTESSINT
Sequence of cGMP-inhibited 3',5'-cyclic phosphodiesterase 3A (Q14432 whole entry): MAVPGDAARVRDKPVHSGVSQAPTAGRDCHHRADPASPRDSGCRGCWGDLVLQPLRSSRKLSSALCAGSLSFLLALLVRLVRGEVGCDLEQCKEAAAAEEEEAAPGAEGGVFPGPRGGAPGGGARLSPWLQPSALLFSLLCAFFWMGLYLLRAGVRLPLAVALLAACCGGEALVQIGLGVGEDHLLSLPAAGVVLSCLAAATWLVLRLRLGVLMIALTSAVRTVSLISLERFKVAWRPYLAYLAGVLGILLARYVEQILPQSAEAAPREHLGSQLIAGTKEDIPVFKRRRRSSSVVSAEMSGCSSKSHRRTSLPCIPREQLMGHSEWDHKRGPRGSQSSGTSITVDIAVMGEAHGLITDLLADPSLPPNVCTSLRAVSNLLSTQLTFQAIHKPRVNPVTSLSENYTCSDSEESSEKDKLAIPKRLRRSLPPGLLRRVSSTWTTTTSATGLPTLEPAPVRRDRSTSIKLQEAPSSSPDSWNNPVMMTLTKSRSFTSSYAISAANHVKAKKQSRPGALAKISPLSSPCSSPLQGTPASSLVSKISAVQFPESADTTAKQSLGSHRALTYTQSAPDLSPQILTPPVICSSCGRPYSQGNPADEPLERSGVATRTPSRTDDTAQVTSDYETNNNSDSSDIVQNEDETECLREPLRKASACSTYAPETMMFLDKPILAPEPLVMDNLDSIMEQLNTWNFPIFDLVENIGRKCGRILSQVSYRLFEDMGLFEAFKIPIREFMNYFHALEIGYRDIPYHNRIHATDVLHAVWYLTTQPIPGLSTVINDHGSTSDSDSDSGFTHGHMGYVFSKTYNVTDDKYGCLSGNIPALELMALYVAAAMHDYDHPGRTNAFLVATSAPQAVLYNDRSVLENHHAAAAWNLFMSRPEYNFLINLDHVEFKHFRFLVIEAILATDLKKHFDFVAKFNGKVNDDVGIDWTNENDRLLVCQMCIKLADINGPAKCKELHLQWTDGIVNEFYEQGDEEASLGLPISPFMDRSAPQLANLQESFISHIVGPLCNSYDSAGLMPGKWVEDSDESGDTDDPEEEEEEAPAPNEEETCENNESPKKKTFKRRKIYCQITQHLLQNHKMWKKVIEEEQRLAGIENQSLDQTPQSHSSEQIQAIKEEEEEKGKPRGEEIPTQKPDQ
Sequence of Delta-type opioid receptor (P41143 whole entry): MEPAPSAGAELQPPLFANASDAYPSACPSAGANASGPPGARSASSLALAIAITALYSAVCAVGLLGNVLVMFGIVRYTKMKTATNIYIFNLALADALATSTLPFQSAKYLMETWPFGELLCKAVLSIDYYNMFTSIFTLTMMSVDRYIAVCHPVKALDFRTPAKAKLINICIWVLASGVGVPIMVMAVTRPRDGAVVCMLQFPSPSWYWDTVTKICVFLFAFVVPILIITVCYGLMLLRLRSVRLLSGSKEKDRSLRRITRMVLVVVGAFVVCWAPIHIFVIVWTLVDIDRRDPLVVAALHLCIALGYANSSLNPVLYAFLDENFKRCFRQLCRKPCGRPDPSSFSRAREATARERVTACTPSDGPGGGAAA
Sequence of 3',5'-cyclic-AMP phosphodiesterase 4D (Q08499 whole entry): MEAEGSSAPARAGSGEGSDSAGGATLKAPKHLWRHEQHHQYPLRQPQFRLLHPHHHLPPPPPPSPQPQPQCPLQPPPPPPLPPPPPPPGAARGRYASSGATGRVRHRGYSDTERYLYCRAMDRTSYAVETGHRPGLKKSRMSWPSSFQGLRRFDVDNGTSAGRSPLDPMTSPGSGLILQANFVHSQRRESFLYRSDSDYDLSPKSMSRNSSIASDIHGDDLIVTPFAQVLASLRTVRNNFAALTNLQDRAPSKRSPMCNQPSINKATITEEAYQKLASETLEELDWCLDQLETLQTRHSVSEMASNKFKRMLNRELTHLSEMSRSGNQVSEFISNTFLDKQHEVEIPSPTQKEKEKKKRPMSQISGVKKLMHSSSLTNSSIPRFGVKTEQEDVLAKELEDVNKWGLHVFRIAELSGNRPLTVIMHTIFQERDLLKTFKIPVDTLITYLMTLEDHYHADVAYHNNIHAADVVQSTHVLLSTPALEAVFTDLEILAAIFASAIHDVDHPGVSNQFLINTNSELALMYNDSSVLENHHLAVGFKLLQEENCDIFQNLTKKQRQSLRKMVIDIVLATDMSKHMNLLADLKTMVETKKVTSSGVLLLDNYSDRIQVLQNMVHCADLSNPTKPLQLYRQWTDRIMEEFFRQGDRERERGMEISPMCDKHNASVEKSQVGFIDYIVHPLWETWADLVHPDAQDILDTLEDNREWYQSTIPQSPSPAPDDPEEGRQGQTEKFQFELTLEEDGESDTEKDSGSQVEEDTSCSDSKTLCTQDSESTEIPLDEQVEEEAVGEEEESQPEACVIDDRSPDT
Sequence of Motilin receptor (O43193 whole entry): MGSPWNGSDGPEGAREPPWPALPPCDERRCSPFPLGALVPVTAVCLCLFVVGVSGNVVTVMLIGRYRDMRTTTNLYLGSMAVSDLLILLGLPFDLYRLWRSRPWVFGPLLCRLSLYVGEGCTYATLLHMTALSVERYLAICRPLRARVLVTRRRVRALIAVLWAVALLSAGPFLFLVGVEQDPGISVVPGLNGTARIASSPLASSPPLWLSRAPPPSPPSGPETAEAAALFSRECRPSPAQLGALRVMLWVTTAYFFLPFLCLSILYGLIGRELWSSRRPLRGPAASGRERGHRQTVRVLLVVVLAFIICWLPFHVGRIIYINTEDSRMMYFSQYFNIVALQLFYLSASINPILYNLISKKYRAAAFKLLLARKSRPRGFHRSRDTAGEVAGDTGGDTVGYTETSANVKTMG

Row | SMILES | AC50 [1] | AC50 [2] | AC50 [3] | AC50 [4] | AC50 [5] | AC50 [6] | AC50 [7] | AC50 [8] | AC50 [9] | AC50 [10] | AC50 [11]
1 | N[C@@H]1[C@H]2CN(c3nc4c(cc3F)c(=O)c(C(=O)O)cn4-c3ccc(F)cc3F)C[C@@H]12 [TROVAFLOXACIN] | > 30 µM | > 30 µM | > 30 µM | > 30 µM | > 30 µM | > 30 µM | > 30 µM | > 30 µM | > 30 µM | > 30 µM | > 30 µM
2 | O=C(O[C@H]1C[C@H]2CC[C@@H](C1)[N+]21CCCC1)C(O)(c1ccccc1)c1ccccc1 [TROSPIUM] | > 30 µM | > 30 µM | > 30 µM | > 30 µM | > 30 µM | > 30 µM | > 30 µM | > 30 µM | > 30 µM | > 30 µM | > 30 µM
3 | Nc1nc(NC2CC2)c2ncn([C@H]3C=C[C@@H](CO)C3)c2n1 [ABACAVIR] | > 30 µM | > 30 µM | > 30 µM | > 30 µM | > 30 µM | > 30 µM | > 30 µM | > 30 µM | 10 µM | > 30 µM | > 30 µM
4 | NCC(CC(=O)O)c1ccc(Cl)cc1 (stereo unspecified) [BACLOFEN] | > 30 µM | > 30 µM | > 30 µM | > 30 µM | > 30 µM | > 30 µM | > 30 µM | > 30 µM | > 30 µM | > 30 µM | > 30 µM
5 | Cc1cn([C@H]2C=C[C@@H](CO)O2)c(=O)[nH]c1=O [STAVUDINE] | > 10 µM | > 10 µM | > 30 µM | > 10 µM | > 30 µM | > 10 µM | > 10 µM | > 10 µM | > 30 µM | > 30 µM | > 30 µM
6 | O=P1(NCCCl)OCCCN1CCCl (stereo unspecified) [IFOSFAMIDE] | > 30 µM | > 30 µM | > 30 µM | > 30 µM | > 30 µM | > 30 µM | > 30 µM | > 30 µM | > 30 µM | > 30 µM | 12 µM
7 | CCCSc1ccc2nc(NC(=O)OC)[nH]c2c1 [ALBENDAZOLE] | > 10 µM | > 10 µM | > 10 µM | > 10 µM | > 10 µM | > 10 µM | > 10 µM | > 30 µM | > 30 µM | > 10 µM | > 30 µM
8 | CN1C(C(=O)Nc2ccccn2)=C(O)c2sc(Cl)cc2S1(=O)=O [LORNOXICAM] | > 10 µM | > 10 µM | > 30 µM | > 10 µM | > 30 µM | > 10 µM | > 10 µM | > 30 µM | > 30 µM | > 10 µM | > 30 µM
9 | C[C@@H](O)[C@H]1C(=O)N2C(C(=O)O)=C(S[C@@H]3CN[C@H](C(=O)N(C)C)C3)[C@H](C)[C@H]12 [MEROPENEM] | > 300 µM | > 300 µM | > 300 µM | > 300 µM | > 300 µM | > 300 µM | > 300 µM | > 300 µM | > 300 µM | > 300 µM | > 300 µM
10 | COc1ccc(CC(C)(C)NC[C@H](O)c2cc(O)cc3c2OCC(=O)N3)cc1 [OLODATEROL] | > 30 µM | 10 µM | > 30 µM | > 30 µM | > 30 µM | > 30 µM | > 30 µM | > 30 µM | 21 µM | > 30 µM | > 30 µM
11 | CC(=O)NCCCS(=O)(=O)O [ACAMPROSATE] | > 30 µM | > 30 µM | > 30 µM | > 30 µM | > 30 µM | > 30 µM | > 30 µM | > 30 µM | > 30 µM | > 30 µM | > 30 µM
12 | Cc1ccc(-c2cc(C(F)(F)F)nn2-c2ccc(S(N)(=O)=O)cc2)cc1 [CELECOXIB] | > 10 µM | > 10 µM | > 10 µM | > 10 µM | > 10 µM | > 10 µM | > 10 µM | > 30 µM | 20 µM | > 10 µM | > 30 µM
13 | CC1(C)NC(=O)N(c2ccc([N+](=O)[O-])c(C(F)(F)F)c2)C1=O [NILUTAMIDE] | > 30 µM | > 30 µM | > 30 µM | > 30 µM | > 30 µM | > 30 µM | > 30 µM | > 30 µM | 28 µM | > 30 µM | > 30 µM
14 | COc1ccccc1OCC(O)CN1CCN(CC(=O)Nc2c(C)cccc2C)CC1 (stereo unspecified) [RANOLAZINE] | > 30 µM | 7.7 µM | > 30 µM | > 30 µM | > 30 µM | > 30 µM | > 30 µM | > 30 µM | > 30 µM | > 30 µM | > 30 µM
15 | CC[C@H]1[C@@H](O)[C@@H]2[C@H](CC[C@]3(C)[C@@H]([C@H](C)CCC(=O)O)CC[C@@H]23)[C@@]2(C)CC[C@@H](O)C[C@@H]12 [OBETICHOLIC ACID] | > 30 µM | 11 µM | > 30 µM | > 30 µM | > 30 µM | > 30 µM | > 30 µM | > 30 µM | > 30 µM | > 30 µM | > 30 µM
16 | CN(C)CCC(c1ccc(Cl)cc1)c1ccccn1 (stereo unspecified) [CHLORPHENIRAMINE] | > 10 µM | > 10 µM | > 30 µM | > 10 µM | > 30 µM | > 10 µM | > 10 µM | > 10 µM | > 10 µM | > 10 µM | > 10 µM
